From PMC4904373, “Azole Antifungal Sensitivity of Sterol 14α-Demethylase (CYP51) and CYP5218 from Malassezia globosa” (Scientific Reports, 2016)
≈ marks a conversion by molar mass, not a printed value. Where “and” joins values, the source holds several entries; their conditions need not be identical. Equal entries are not always repeated. Where two headings read alike, the source gives them in different places.

What was measured:
M. globosa CYP5218 [1] = target: T1, M. globosa CYP5218 (Malassezia globosa, UniProt A8QCD3, A3L/A5L/F6A/I7V/S4L/S8F); conditions: 100 μM fatty acid, 1 hour to overnight (~16 h), three different cytochrome P450 reductase redox partners
Description: The CYP5218 fatty acid reconstitution assay system used was based on that previously described by Guengerich[54] and contained 200 nM of CYP5218, 500 nM of cytochrome P450 reductase (A. fumigatus CPR1[52]) or H. sapiens CPR[55] or C. albicans CPR[56], 50 μM DLPC, 100 μM fatty acid (lauric acid, myristic acid, palmitic acid, palmitoleic acid, oleic acid and linoleic acid), 4 mM glucose-6-phosphate, 3 U/ml yeast glucose-6-phosphate dehydrogenase in a final volume of 500 μl with 0.1 M potassium phosphate (pH 7.4). Assay mixtures were incubated at 37 °C for 5 min prior to initiation with 4 mM β-NADPHNa4 and then incubated for a further 60 min or overnight (~16 h) at 37 °C. Fatty acid metabolites were recovered by extraction with dichloromethane and dried in a vacuum centrifuge. Samples were derivatized with 200 μl anhydrous pyridine and 250 μl BSTFA:TMCS (99:1) (30 min at 80 °C) and extracted with 500 μl of hexane, prior to analysis by GC/MS (Thermo GC Trace 1300 and ISQ MS). GC analysis was performed with a 5% phenyl methylpolysiloxane column (DB5) (Agilent Technologies). The oven programme was as follows: initial: 70 °C, with 3 min hold; ramp: 10 °C min^−1 to 180 °C (held for 2 min), 10 °C min^−1 to 250 °C (held for 2 min) and 10 °C min^−1 to 280 °C (held for 2 min). Data were analyzed using Thermo Xcalibur 2.2 software.

M. globosa CYP5218 [2] = target: T1, M. globosa CYP5218; test: biochemical; format: binding; conditions: for Kd / CYP5218 Kd (μM) Eadie-Hofstee / CYP5218 Kd (μM) Michaelis-Menten: 4 μM CYP5218, type I spectra, mean of three replicates with SD; for binding spectra with CYP5218: result in words
Description: Reduced carbon monoxide difference spectroscopy[46][47] and absolute spectra between 700 and 300 nm were used to determine cytochrome P450 concentrations. Substrate and azole binding studies were performed[31][48] using 2.5 mM stock sterol solutions in 40% (wt/vol) (2-hydroxypropyl)-β-cyclodextrin (HPCD), 4 mg ml^−1 solutions of fatty acids in dimethylformamide (DMF), and stock 0.05, 0.1 and 0.2 mg ml^−1 solutions of azole antifungal agents in dimethylsulfoxide (DMSO). Sterols were titrated against 5 μM CYP51, fatty acids were titrated against 4 μM CYP5218 and azole antifungal agents were titrated against 2 μM CYP51 and CYP5218. The absorbance difference spectrum between 500 and 350 nm was determined after each incremental addition of ligand with saturation curves constructed from ΔApeak-trough against ligand concentration. […] The dissociation constants of the enzyme-azole complex were determined by non-linear regression (Levenberg-Marquardt algorithm) using a rearrangement of the Morrison equation for tight ligand binding. ProFit 6.1.12 (QuantumSoft, Zurich, Switzerland) was used for curve-fitting data. All ligand-binding studies were performed at 22 ± 2 °C and in triplicate. All spectral determinations were made using a Hitachi U-3310 UV/VIS spectrophotometer (San Jose, California).

[3] = test system: C=C(CC[C@@H](C)[C@H]1CC[C@@]2(C)C3=C(CC[C@]12C)[C@@]1(C)CC[C@H](O)[C@@H](C)[C@@H]1CC3)C(C)C; test: purified protein, by the assay type; conditions: other: 0.13 μM CYP51, 0.5 μM AfCPR1, 5 min at 37 °C, substrate inhibition equation
Description: (§2) Assay mixtures were incubated at 37 °C for 10 minutes prior to initiation with 4 mM β-NADPHNa4 followed by shaking at 37 °C for 20 minutes. Sterol metabolites were recovered by extraction with ethyl acetate followed by derivatization with 0.1 ml N,O-bis(trimethylsilyl)trifluoroacetamide (BSTFA) : trimethylchlorosilane (TMCS) (99:1) and 0.3 ml anhydrous pyridine (2 h at 80 °C) prior to analysis by gas chromatography mass spectrometry (GC/MS)[53].

[4] = test system: C=C(CC[C@@H](C)[C@H]1CC[C@@]2(C)C3=C(CC[C@]12C)[C@@]1(C)CC[C@H](O)C(C)(C)[C@@H]1CC3)C(C)C; test: purified protein, by the assay type; conditions: other: 0.13 μM CYP51, 0.5 μM AfCPR1, 5 min at 37 °C, substrate inhibition equation
Description: as §2

M. globosa CYP51 [5] = target: T2, M. globosa CYP51 (Malassezia globosa, UniProt A8Q3I7, A7V/E4L/G6A/I5L/L2A/Q3L/W8F); test: biochemical; format: binding
Description: (§1) Reduced carbon monoxide difference spectroscopy[46][47] and absolute spectra between 700 and 300 nm were used to determine cytochrome P450 concentrations. Substrate and azole binding studies were performed[31][48] using 2.5 mM stock sterol solutions in 40% (wt/vol) (2-hydroxypropyl)-β-cyclodextrin (HPCD), 4 mg ml^−1 solutions of fatty acids in dimethylformamide (DMF), and stock 0.05, 0.1 and 0.2 mg ml^−1 solutions of azole antifungal agents in dimethylsulfoxide (DMSO). Sterols were titrated against 5 μM CYP51, fatty acids were titrated against 4 μM CYP5218 and azole antifungal agents were titrated against 2 μM CYP51 and CYP5218. The absorbance difference spectrum between 500 and 350 nm was determined after each incremental addition of ligand with saturation curves constructed from ΔApeak-trough against ligand concentration. The dissociation constants (Kd) for sterols and fatty acids were determined by non-linear regression (Levenberg-Marquardt algorithm) using the Michaelis-Menten equation. The dissociation constants of the enzyme-azole complex were determined by non-linear regression (Levenberg-Marquardt algorithm) using a rearrangement of the Morrison equation for tight ligand binding. ProFit 6.1.12 (QuantumSoft, Zurich, Switzerland) was used for curve-fitting data. All ligand-binding studies were performed at 22 ± 2 °C and in triplicate. All spectral determinations were made using a Hitachi U-3310 UV/VIS spectrophotometer (San Jose, California).

M. globosa CYP51 [6] = target: T2, M. globosa CYP51; conditions: 0.5 μM CYP51, 50 μM sterol substrate
Description: Sterol metabolites were recovered by extraction with ethyl acetate followed by derivatization with 0.1 ml N,O-bis(trimethylsilyl)trifluoroacetamide (BSTFA) : trimethylchlorosilane (TMCS) (99:1) and 0.3 ml anhydrous pyridine (2 h at 80 °C) prior to analysis by gas chromatography mass spectrometry (GC/MS)[53].

Candida maltosa CYP52A4 = test system: Candida maltosa CYP52A4; parameters: method as in PMID 8645001; conditions: cited from earlier work
M. globosa CYP5218 [7] = target: T1, M. globosa CYP5218; test: biochemical; format: binding
Description: as §1

M. globosa ATCC MYA-4612 = test: M. globosa MIC100 determination; format: cell-based, Malassezia globosa; conditions: Malassezia globosa, 168 h; modified Dixon medium, 30 °C, 7 days; read-out: MIC100
Description: M. globosa ATCC MYA-4612 was grown for 7 days at 30 °C in modified Dixon medium (3.6% malt extract, 2% desiccated ox-bile, 1% Tween 40, 0.6% peptone, 0.2% glycerol, 0.2% oleic acid, pH adjusted to 6 with HCl) until a culture density of 1.5 × 10^5 cells ml^−1 was obtained. Cells from 3 ml of stock culture were harvested, suspended in 1 ml of saline and used to inoculate 30 ml of fresh modified Dixon medium for use as M. globosa inoculums in MIC determinations. Stock azole concentrations of 1600, 800, 400, 200, 100, 50, 25, 12.5, 6.25, 3.125 and 0 μg ml^−1 were prepared in DMSO. These were diluted ten-fold with fresh modified Dixon media and 20 μl of the diluted azole solutions were then mixed with 180 μl of M. globosa inoculum in microtiter plate wells to yield final azole concentrations of 16, 8, 4, 2, 1, 0.5, 0.25, 0.125, 0.0625, 0.03125 and 0 μg ml^−1. The microtiter plates were incubated at 30 °C for 7 days and then read. Each azole MIC100 determination was performed in triplicate.

[8] = CYP5218 Kd (μM) Michaelis-Menten

T2 sequence (A8Q3I7 whole entry L2A/Q3L/E4L/I5L/G6A/A7V/W8F): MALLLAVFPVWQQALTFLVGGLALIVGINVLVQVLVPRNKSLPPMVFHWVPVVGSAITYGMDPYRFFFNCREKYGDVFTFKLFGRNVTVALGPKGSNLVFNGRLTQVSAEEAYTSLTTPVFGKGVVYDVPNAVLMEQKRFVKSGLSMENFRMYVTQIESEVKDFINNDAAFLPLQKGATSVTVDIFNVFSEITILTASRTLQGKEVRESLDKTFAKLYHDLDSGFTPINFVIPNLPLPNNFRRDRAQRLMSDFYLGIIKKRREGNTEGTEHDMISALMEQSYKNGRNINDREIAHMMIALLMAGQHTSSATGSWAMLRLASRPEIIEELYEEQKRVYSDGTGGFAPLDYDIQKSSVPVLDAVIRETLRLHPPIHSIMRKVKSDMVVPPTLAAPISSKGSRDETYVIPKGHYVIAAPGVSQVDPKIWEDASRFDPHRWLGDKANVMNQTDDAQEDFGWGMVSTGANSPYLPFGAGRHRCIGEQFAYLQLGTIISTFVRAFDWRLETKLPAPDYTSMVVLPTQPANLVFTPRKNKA

In the case of CCCCCCCC/C=C\CCCCCCCC(=O)O [Oleic acid, oleic acid], the “product formation in CYP5218 reconstitution assay” value (“product formation” below) (M. globosa CYP5218 [1]) is reported as “no observed product formation”, the Kd (M. globosa CYP5218 [2]; CYP5218 Kd (μM) Eadie-Hofstee) is reported as 90 ± 16 µM and the Kd (M. globosa CYP5218 [2]; [8]) is reported as 93 ± 11 µM.

“M. globosa CYP51 (Malassezia globosa CBS 7966; A7V/E4L/G6A/I5L/L2A/Q3L/W8F)” gave a Km [3] of 42.09 ± 10.45 µM, a kcat [3] of 0.8948 ± 0.2368 s⁻¹ and a Km [4] of 55.91 ± 19.79 µM. For the same molecule, the kcat [4] was 1.092 ± 0.2675 s⁻¹.

With CCCCCCCCCCCCCCCC(=O)O [Palmitic acid, palmitic acid] the “product formation” value (M. globosa CYP5218 [1]) was “no observed product formation”, the Kd (M. globosa CYP5218 [2]; CYP5218 Kd (μM) Eadie-Hofstee) was 253 ± 77 µM and the Kd (M. globosa CYP5218 [2]; [8]) was 1020 ± 755 µM.

In the case of C=C(CC[C@@H](C)[C@H]1CC[C@@]2(C)C3=C(CC[C@]12C)[C@@]1(C)CC[C@H](O)C(C)(C)[C@@H]1CC3)C(C)C [eburicol], the Kd (M. globosa CYP51 [5]) is reported as 23 µM, the “binding spectra with CYP5218” value (M. globosa CYP5218 [2]) is reported as “failed to give reproducible binding spectra” and the turnover number (M. globosa CYP51 [6]) is reported as 5.6 min⁻¹.

For CCCCCCCCCCCCCC(=O)O [Myristic acid, myristic acid], the Kd (Candida maltosa CYP52A4) is listed as about 120 µM, the “product formation” value (M. globosa CYP5218 [1]) is listed as “no observed product formation” and the Kd (M. globosa CYP5218 [2]; CYP5218 Kd (μM) Eadie-Hofstee) is listed as 245 ± 29 µM. For the same molecule, the Kd (M. globosa CYP5218 [2]; [8]) was 195 ± 41 µM.

With CCCCCCCCCC(=O)O [Capric acid, capric acid] the “CYP5218 Kd (μM) Eadie-Hofstee” value (M. globosa CYP5218 [2]) was “no binding”, the “CYP5218 Kd (μM) Michaelis-Menten” value (M. globosa CYP5218 [2]) was “no binding” and the “binding spectra with CYP5218” value (M. globosa CYP5218 [2]) was “No binding spectra”.

For Clc1ccccc1C(c1ccccc1)(c1ccccc1)n1ccnc1 [clotrimazole], the Kd (M. globosa CYP51 [5]) was 0.004 ± 0.002 µM, the “azole binding to CYP5218 (binding spectra)” value (M. globosa CYP5218 [7]; 2 μM CYP5218, result in words) was “type II binding spectra” and the Kd (M. globosa CYP5218 [7]; Kd, azole titrated against 2 μM CYP5218) was ~0.5 µM and 0.486 µM. It also gave an MIC (M. globosa ATCC MYA-4612) of 8 µg/mL (≈ 23.2 µM).

With CCCCCCCCCCCCCCCCCCCC(=O)O [Arachidic acid, arachidic acid] the “CYP5218 Kd (μM) Eadie-Hofstee” value (M. globosa CYP5218 [2]) was “no binding”, the “CYP5218 Kd (μM) Michaelis-Menten” value (M. globosa CYP5218 [2]) was “no binding” and the “binding spectra with CYP5218” value (M. globosa CYP5218 [2]) was “No binding spectra”.

For CC/C=C\CCCCCCCC(=O)O [Lauroleic acid, lauroleic acid], the “CYP5218 Kd (μM) Michaelis-Menten” value (M. globosa CYP5218 [2]) was “poor fit” and the Kd (M. globosa CYP5218 [2]; read-out: CYP5218 Kd (μM) Eadie-Hofstee) was 148 ± 20 µM.

With CC(C)=CCC[C@@H](C)[C@H]1CC[C@@]2(C)C3=C(CC[C@]12C)[C@@]1(C)CC[C@H](O)C(C)(C)[C@@H]1CC3 [lanosterol] the Kd (M. globosa CYP51 [5]) was 32 µM, the “binding spectra with CYP5218” value (M. globosa CYP5218 [2]) was “failed to give reproducible binding spectra” and the turnover number (M. globosa CYP51 [6]) was 1.7 min⁻¹.

With C=CCCCCCCCCCCCCCC [1-hexadecene] the “binding spectra with CYP5218” value (M. globosa CYP5218 [2]) was “No binding spectra”.
